Legend:
Assay in all cases: relative viability (nuclei count vs DMSO), 5 days (fraction); higher = more cells survive
NCI-H596 = tested on: NCI-H596
Procedure, shortened: (§1)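 Lung cancer cell lines were seeded in 1536-well plates and dosed by pin tool the next day, with either a single drug or a fixed anchor-drug dose combined with five library-drug doses (not always all listed) spaced in √10 steps. Five days later, one step fixed the cells and stained their nuclei (final 0.05% Triton X-100, 1% formaldehyde, 1 ug/ml Hoechst), and nuclei were counted on 4× images. Relative viability is the nuclei count in treated wells divided by the count in vehicle wells, and each value is the median of duplicate plates.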

NCI-H661 = tested on: NCI-H661
Procedure, shortened: as §1

NCI-H1666 = tested on: NCI-H1666
Procedure, shortened: as §1

NCI-H23 = tested on: NCI-H23
Procedure, shortened: as §1

NCI-H1944 = tested on: NCI-H1944
Procedure, shortened: as §1

NCI-H322M = tested on: NCI-H322M
Procedure, shortened: as §1

201T = tested on: 201T
Procedure, shortened: as §1

SW 1573 = tested on: SW 1573
Procedure, shortened: as §1

NCI-H460 = tested on: NCI-H460
Procedure, shortened: as §1

NCI-H2009 = tested on: NCI-H2009
Procedure, shortened: as §1

NCI-H2087 = tested on: NCI-H2087
Procedure, shortened: as §1

`C=C1C(=O)O[C@@H](CCCCCCCC)[C@@H]1C(=O)O` [C-75] + Nc1nc2[nH]cc(CCc3ccc(C(=O)N[C@@H](CCC(=O)O)C(=O)O)cc3)c2c(=O)[nH]1 [Pemetrexed] (partner 0.2 µM) showed a relative viability (NCI-H596; first compound 0.08 µM) of 0.503, a relative viability (NCI-H596; first compound 0.253 µM) of 0.432 and a relative viability (NCI-H596; first compound 0.8 µM) of 0.461. It also gave a relative viability (NCI-H596; first compound 2.53 µM) of 0.47, a relative viability (NCI-H596; first compound 8 µM) of 0.481 and a relative viability (NCI-H661; first compound 0.08 µM) of 0.919. The relative viability (NCI-H661; first compound 0.253 µM) was 0.925, the relative viability (NCI-H661; first compound 0.8 µM) was 0.856 and the relative viability (NCI-H661; first compound 2.53 µM) was 0.783. The relative viability (NCI-H661; first compound 8 µM) was 0.881, the relative viability (NCI-H1666; first compound 0.08 µM) was 0.882 and the relative viability (NCI-H1666; first compound 0.253 µM) was 0.828. The relative viability (NCI-H1666; first compound 0.8 µM) was 0.815, the relative viability (NCI-H1666; first compound 8 µM) was 0.796 and the relative viability (NCI-H23; first compound 0.08 µM) was 0.716. For the same compound, the relative viability (NCI-H23; first compound 0.253 µM) was 1.03, the relative viability (NCI-H23; first compound 0.8 µM) was 0.546 and the relative viability (NCI-H23; first compound 2.53 µM) was 0.406. The relative viability (NCI-H23; first compound 8 µM) was 0.443, the relative viability (NCI-H1944; first compound 0.08 µM) was 0.645 and the relative viability (NCI-H1944; first compound 0.253 µM) was 0.784. For the same compound, the relative viability (NCI-H1944; first compound 0.8 µM) was 0.509, the relative viability (NCI-H1944; first compound 2.53 µM) was 0.564 and the relative viability (NCI-H1944; first compound 8 µM) was 0.57. For the same compound, the relative viability (NCI-H322M; first compound 0.08 µM) was 0.633, the relative viability (NCI-H322M; first compound 0.253 µM) was 0.6 and the relative viability (NCI-H322M; first compound 0.8 µM) was 0.575. For the same compound, the relative viability (NCI-H322M; first compound 8 µM) was 0.625, the relative viability (201T; first compound 0.08 µM) was 0.337 and the relative viability (201T; first compound 0.253 µM) was 0.323. The relative viability (201T; first compound 0.8 µM) was 0.296, the relative viability (201T; first compound 2.53 µM) was 0.311 and the relative viability (201T; first compound 8 µM) was 0.308. The relative viability (SW 1573; first compound 0.08 µM) was 0.947, the relative viability (SW 1573; first compound 0.253 µM) was 0.874 and the relative viability (SW 1573; first compound 0.8 µM) was 0.728. The relative viability (SW 1573; first compound 2.53 µM) was 0.684, the relative viability (SW 1573; first compound 8 µM) was 0.706 and the relative viability (NCI-H460; first compound 0.08 µM) was 0.0548. For the same compound, the relative viability (NCI-H460; first compound 0.253 µM) was 0.0554, the relative viability (NCI-H460; first compound 0.8 µM) was 0.0669 and the relative viability (NCI-H460; first compound 2.53 µM) was 0.0313. The relative viability (NCI-H460; first compound 8 µM) was 0.0571, the relative viability (NCI-H2009; first compound 0.08 µM) was 1.12 and the relative viability (NCI-H2009; first compound 0.253 µM) was 0.924. It also gave a relative viability (NCI-H2009; first compound 0.8 µM) of 0.947, a relative viability (NCI-H2009; first compound 2.53 µM) of 0.886 and a relative viability (NCI-H2009; first compound 8 µM) of 0.975. For the same compound, the relative viability (NCI-H2087; first compound 0.08 µM) was 0.695, the relative viability (NCI-H2087; first compound 0.253 µM) was 0.686 and the relative viability (NCI-H2087; first compound 0.8 µM) was 0.616.

Source: the supplement of paper PMC10307832
